# Molecular target: T1, CFTR in primary human bronchial epithelial cells from a ΔF508 homozygous CF donor (CF-HBE cells) (Homo sapiens, UniProt P13569, DEL508-508)
# T1 construct: Primary human bronchial epithelial cells from a ΔF508 homozygous CF donor; host or cells: primary human bronchial epithelial cells (CF-HBE), ΔF508 homozygous donor
# Assay: TECC24 recording analysis of CFTR-mediated transepithelial chloride transport (AUC fold over DMSO)
# Type: cell-based
# Conditions: 3 μM test agent, CF-HBE cells cultured 48 hours at 36.5° C.; ratio of test agent AUC of forskolin-stimulated IEQ divided by vehicle (DMSO) AUC
# Description: Example 31: TECC24 AUC Fold Over DMSO @ 3 μM
# The effects of a test agent on CFTR-mediated transepithelial chloride transport was measured using TECC24 recording analysis. Test agents were solubilized in DMSO. Solubilized test agents were mixed with incubation medium containing DMEM/F12, Ultroser G (2%; Crescent Chemical, catalog #67042), Hyclone Fetal Clone II (2%; GE Healthcare, catalog #SH30066.02), bovine brain extract (0.25%; Lonza, catalog #CC-4098), insulin (2.5 μg/mL), IL-13 (10 ng/mL), hydrocortisone (20 nM), transferrin (2.5 μg/mL), triiodothyronine (500 nM), ethanolamine (250 nM), epinephrine (1.5 μM), phosphoethanolamine (250 nM), and retinoic acid (10 nM). Primary human bronchial epithelial cells from a ΔF508 homozygous CF donor (CF-HBE cells; from University of North Carolina Cystic Fibrosis Tissue Procurement Center), grown on Transwell HTS 24-well cell culture inserts (Costar, catalog #3378), were exposed to test agents or controls dissolved in incubation medium. The CF-HBE cells were cultured at 36.5° C. for 48 hours before TECC24 recordings were performed in the presence or absence of test agent, a positive control or vehicle (DMSO).
# Following incubation, the transwell cell culture inserts containing the test agent or control-treated CF-HBE cells were loaded onto a TECC24 apparatus (TECC v7 or MTECC v2; EP Design) to record the transepithelial voltage (VT) and resistance (TEER) using 4 AgCl electrodes per well configured in current-clamp mode. The apical and basolateral bath solutions both contained (in mM) 140 NaCl, 5 KCl, 2 CaCl2), 1 MgCl2, 10 Hepes, and 10 glucose (adjusted to pH 7.4 with NaOH). To inhibit basal Na+ absorption, the ENaC inhibitor benzamil (10 μM) was added to the bath. Then, the adenylate cyclase activator, forskolin (10 μM), was added to the bath to activate CFTR. The forskolin-stimulated Cl-transport was halted by addition of bumetanide (20 μM), an inhibitor of the basolateral chloride co-transporter NKCC1, to the bath to confirm that the detected signal was chloride dependent. VT and TEER recordings were digitally acquired at routine intervals using TECC or MTECC software (EP Design). VT and TEER were transformed into equivalent transepithelial Cl-current (IEQ), and the Area Under the Curve (AUC) of the IEQ time course between forskolin and bumetanide addition is generated using Excel (Microsoft). Efficacy is expressed as the ratio of the test agent AUC divided by vehicle AUC. EC50s based on AUC are generated using the non-linear regression log(agonist) vs. response function in Prism software (GraphPad) with Hill Slope fixed=1.
# If a test agent increased the AUC of the forskolin-stimulated IEQ relative to vehicle in CF-HBE cells, and this increase was inhibited by bumetanide, then the test agent was considered a CFTR corrector.
# T1 sequence (P13569 with tags, fused parts or gaps DEL508-508): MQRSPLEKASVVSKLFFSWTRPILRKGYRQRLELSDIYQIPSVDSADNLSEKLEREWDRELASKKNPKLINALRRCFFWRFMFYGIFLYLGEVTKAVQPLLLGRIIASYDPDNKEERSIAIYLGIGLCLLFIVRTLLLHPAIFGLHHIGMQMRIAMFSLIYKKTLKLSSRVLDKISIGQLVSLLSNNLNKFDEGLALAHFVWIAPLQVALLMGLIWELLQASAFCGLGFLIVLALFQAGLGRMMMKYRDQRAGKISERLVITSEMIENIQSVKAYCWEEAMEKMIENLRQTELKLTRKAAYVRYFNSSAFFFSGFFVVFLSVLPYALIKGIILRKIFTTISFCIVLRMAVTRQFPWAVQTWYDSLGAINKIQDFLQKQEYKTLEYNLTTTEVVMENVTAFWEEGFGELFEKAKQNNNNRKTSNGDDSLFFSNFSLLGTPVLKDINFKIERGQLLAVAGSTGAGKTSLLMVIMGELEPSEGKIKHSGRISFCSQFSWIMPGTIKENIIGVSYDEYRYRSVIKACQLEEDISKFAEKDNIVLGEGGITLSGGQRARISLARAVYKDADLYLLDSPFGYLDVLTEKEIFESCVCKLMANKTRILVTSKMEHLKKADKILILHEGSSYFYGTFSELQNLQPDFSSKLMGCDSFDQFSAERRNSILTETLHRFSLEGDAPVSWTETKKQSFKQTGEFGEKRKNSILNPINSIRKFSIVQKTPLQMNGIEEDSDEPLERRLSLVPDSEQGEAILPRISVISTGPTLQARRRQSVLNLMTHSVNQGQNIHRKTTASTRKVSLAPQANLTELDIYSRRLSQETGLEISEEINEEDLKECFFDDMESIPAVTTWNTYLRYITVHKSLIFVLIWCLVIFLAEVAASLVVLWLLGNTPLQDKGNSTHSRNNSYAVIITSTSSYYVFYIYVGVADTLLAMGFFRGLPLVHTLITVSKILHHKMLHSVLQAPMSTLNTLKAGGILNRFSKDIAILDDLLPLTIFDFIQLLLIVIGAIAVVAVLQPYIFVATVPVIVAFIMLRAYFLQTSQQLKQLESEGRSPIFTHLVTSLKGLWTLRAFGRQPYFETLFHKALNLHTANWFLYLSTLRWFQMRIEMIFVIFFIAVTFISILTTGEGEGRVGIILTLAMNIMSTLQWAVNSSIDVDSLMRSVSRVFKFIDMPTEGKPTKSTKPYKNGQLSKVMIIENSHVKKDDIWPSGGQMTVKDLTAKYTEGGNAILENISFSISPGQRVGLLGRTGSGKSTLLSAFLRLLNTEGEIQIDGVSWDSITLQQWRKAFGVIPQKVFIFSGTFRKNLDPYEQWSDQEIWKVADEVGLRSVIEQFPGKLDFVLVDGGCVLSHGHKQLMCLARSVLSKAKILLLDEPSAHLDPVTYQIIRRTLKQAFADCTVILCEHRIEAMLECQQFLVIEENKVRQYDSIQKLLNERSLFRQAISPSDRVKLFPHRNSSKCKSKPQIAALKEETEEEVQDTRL
row,Structure (SMILES),TECC24 AUC vs. DMSO (@3 μM)
1,"Cc1cccc(C)c1-c1nc(NS(=O)(=O)c2ccccc2)ccc1-c1cccc(OCCC(C)(C)C)c1 [Example 15, N-(5-(3-(3,3-dimethylbutoxy)phenyl)-6-(2,6-dimethylphenyl)pyridin-2-yl)benzenesulfonamide]",A (“A “refers to AUC > 5)
2,"CC(C)c1ccccc1-c1nc(NS(=O)(=O)c2cccc(N)c2)ccc1-c1cccc(OCCC(C)(C)C)c1 [Example 16, 3-amino-N-(5-(3-(3,3-dimethylbutoxy)phenyl)-6-(2-isopropylphenyl)pyridin-2-yl)benzenesulfonamide]",A (“A “refers to AUC > 5)
3,"CC(C)(C)COc1cc(-c2ccc(NS(=O)(=O)c3cccc(N)c3)nc2-c2ccc(C(F)(F)F)cc2)ccc1Cl [Example 17, 3-amino-N-(5-(4-chloro-3-(neopentyloxy)phenyl)-6-(4-(trifluoromethyl)phenyl)pyridin-2-yl)benzenesulfonamide]",C (“C” refers to AUC < 2)
4,"CC(C)c1cc(Cl)ccc1-c1nc(NS(=O)(=O)c2ccccc2)ccc1-c1cccc(OC(F)(F)F)c1 [Example 19, N-(6-(4-chloro-2-isopropylphenyl)-5-(3-(trifluoromethoxy)phenyl)pyridin-2-yl)benzenesulfonamide]",A (“A “refers to AUC > 5)
5,Cc1cccc(C)c1-c1nc(NS(=O)(=O)c2cccc(NC3CC(C)(O)C3)c2)ccc1-c1cccc(OCC(C)(C)C(F)(F)F)c1 (centres unmarked) [Example 20],A (“A “refers to AUC > 5)
6,"CCc1ccccc1-c1nc(NS(=O)(=O)c2cccc(N3CCCC(C)(C(=O)O)C3)n2)ccc1-c1cccc(OCC(F)(F)F)c1 (centres unmarked) [Example 21, 1-[6-[[6-(2-ethylphenyl)-5-[3-(2,2,2-trifluoroethoxy)phenyl]-2-pyridyl]sulfamoyl]-2-pyridyl]-3-methyl-piperidine-3-carboxylic acid]",A (“A “refers to AUC > 5)
7,"CC(C)(C)COc1cc(-c2cnc(NS(=O)(=O)c3ccccc3)nc2-c2ccc(C(F)(F)F)cc2)ccc1Cl [Example 22, 5-(4-chloro-3-(neopentyloxy)phenyl)-2-((phenylsulfonyl)-12-azaneyl)-4-(4-(trifluoromethyl)phenyl)pyrimidine]",C (“C” refers to AUC < 2)
8,CC(C)(C)COc1cc(-c2cnc(NS(=O)(=O)c3cccc(N)c3)nc2-c2ccc(C(F)(F)F)cc2)ccc1Cl [Example 23],B (“B” refers to AUC between 2-5)
9,"CC(C)(C)COc1cc(-c2cnc(NS(=O)(=O)c3cccc(NS(C)(=O)=O)c3)nc2-c2ccc(C(F)(F)F)cc2)ccc1Cl [Example 24, N-(5-(4-chloro-3-(neopentyloxy)phenyl)-4-(4-(trifluoromethyl)phenyl)pyrimidin-2-yl)-3-(methylsulfonamido)benzenesulfonamide]",C (“C” refers to AUC < 2)
10,"CC(C)(C)COc1cc(-c2cnc(NS(=O)(=O)c3cccnc3)nc2-c2ccc(C(F)(F)F)cc2)ccc1Cl [Example 25, N-(5-(4-chloro-3-(neopentyloxy)phenyl)-4-(4-(trifluoromethyl)phenyl)pyrimidin-2-yl)pyridine-3-sulfonamide]",C (“C” refers to AUC < 2)
11,"CC(C)(C)COc1cc(-c2cnc(NS(=O)(=O)c3cccc(Cl)n3)nc2-c2ccc(C(F)(F)F)cc2)ccc1Cl [Example 26, 5-(4-chloro-3-(neopentyloxy)phenyl)-2-(((6-chloropyridin-2-yl)sulfonyl)-12-azaneyl)-4-(4-(trifluoromethyl)phenyl)pyrimidine]",C (“C” refers to AUC < 2)

# From US12583824B2 (Genzyme Corporation, priority 2019, dated 2026)
